Results as given in patent US20150218172A1, “Pyrrolo[2,3-D]Pyrimidine Tropomyosin-Related Kinase Inhibitors” (PFIZER LIMITED, priority 2012, published 2015).

Molecular target: T1, TrkA (Homo sapiens, UniProt P04629)
T1 construct: aa 441-796; His; purchased Invitrogen PV3144
Assay: Isolated TRK enzyme assay (HTRF KinEASE-TK kit), PV3144 TrkA enzyme assay
Format: biochemical
Conditions: PV3144 TrkA enzyme assay, recombinant His-tagged cytoplasmic domain aa 441-796, 4 nM enzyme, 40 uM ATP; arithmetic mean where more than one reading; read-out: Trka enzyme (IC50)
Procedure, shortened: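 Recombinant His-tagged cytoplasmic domain of human TrkA, preactivated with ATP for 20 min, then 20 min with compound before biotinylated TK substrate (1 uM final) at room temperature. HTRF read at 665/620 nm; % inhibition normalised to reference-compound and DMSO controls, IC50 from sigmoid fit, mean of replicates.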

T1 sequence (P04629 441-796): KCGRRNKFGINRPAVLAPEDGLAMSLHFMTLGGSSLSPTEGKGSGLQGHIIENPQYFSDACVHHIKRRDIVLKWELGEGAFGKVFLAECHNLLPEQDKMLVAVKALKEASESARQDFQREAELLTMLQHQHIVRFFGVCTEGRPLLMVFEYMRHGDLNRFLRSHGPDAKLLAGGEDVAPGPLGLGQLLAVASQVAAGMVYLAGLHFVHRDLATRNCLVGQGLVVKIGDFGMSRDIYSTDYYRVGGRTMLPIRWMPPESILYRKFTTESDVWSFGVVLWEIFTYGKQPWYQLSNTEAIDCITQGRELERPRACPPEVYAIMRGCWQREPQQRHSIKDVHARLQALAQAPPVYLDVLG

| SMILES | IC50 |
| --- | --- |
| CC(C)(CO)n1cc(C(=O)c2ccc(C#N)c(NC(=O)Cc3ccc(Cl)cn3)c2)c2cnc(N)nc21 [Example 8, N-(5-{[2-amino-7-(1-hydroxy-2-methylpropan-2-yl)-7H-pyrrolo[2,3-d]pyrimidin-5-yl]carbonyl}-2-cyanophenyl)-2-(5-chloropyridin-2-yl)acetamide] | 32 nM |
| Cc1cc(C)n(CC(=O)Nc2cc(C(=O)c3cn([C@H]4CC[C@H](O)CC4)c4ncncc34)ccn2)n1 [Example 3, 2-(3,5-dimethyl-1H-pyrazol-1-yl)-N-(4-{[7-(trans-4-hydroxycyclohexyl)-7H-pyrrolo[2,3-d]pyrimidin-5-yl]carbonyl}pyridin-2-yl)acetamide] | 183 nM |
| O=C(Cc1ccc(Cl)cc1)Nc1cc(C(=O)c2cn([C@H]3CC[C@H](O)CC3)c3ncncc23)ccn1 [Example 1, 2-(4-chlorophenyl)-N-(4-{[7-(trans-4-hydroxycyclohexyl)-7H-pyrrolo[2,3-d]pyrimidin-5-yl]carbonyl}pyridin-2-yl)acetamide] | 22.8 nM |
| CC(C)n1cc(C(=O)c2ccnc(NC(=O)Cc3ccc(Cl)cc3Cl)c2)c2cncnc21 [Example 157, 2-(2,4-dichlorophenyl)-N-(4-{[7-(propan-2-yl)-7H-pyrrolo[2,3-d]pyrimidin-5-yl]carbonyl}pyridin-2-yl)acetamide] | 15.6 nM |
| CC(C)n1cc(C(=O)c2cc(NC(=O)Cn3cc(C(F)(F)F)nn3)ccn2)c2cncnc21 [Example 79, N-(2-{[7-(propan-2-yl)-7H-pyrrolo[2,3-d]pyrimidin-5-yl]carbonyl}pyridin-4-yl)-2-[4-(trifluoromethyl)-1H-1,2,3-triazol-1-yl]acetamide] | 131 nM |
| Cc1cc(C)n(CC(=O)Nc2cc(C(=O)c3cn(C(C)C)c4ncncc34)ccn2)n1 [Example 152, 2-(3,5-dimethyl-1H-pyrazol-1-yl)-N-(4-{[7-(propan-2-yl)-7H-pyrrolo[2,3-d]pyrimidin-5-yl]carbonyl}pyridin-2-yl)acetamide] | 71.2 nM |
| CC(C)n1cc(C(=O)c2cc(NC(=O)Cc3cccc(S(C)(=O)=O)c3)ccn2)c2cnc(N)nc21 [Example 88, N-(2-{[2-amino-7-(propan-2-yl)-7H-pyrrolo[2,3-d]pyrimidin-5-yl]carbonyl}pyridin-4-yl)-2-[3-(methylsulfonyl)phenyl]acetamide] | 75.9 nM |
| CC(C)(CO)n1cc(C(=O)c2cc(NC(=O)Cn3cc(C(F)(F)F)nn3)ccn2)c2cnc(N)nc21 [Example 53, N-(2-{[2-amino-7-(1-hydroxy-2-methylpropan-2-yl)-7H-pyrrolo[2,3-d]pyrimidin-5-yl]carbonyl}pyridin-4-yl)-2-[4-(trifluoromethyl)-1H-1,2,3-triazol-1-yl]acetamide] | 216 nM |
| O=C(Cc1cccc(C(F)(F)F)c1)Nc1ccnc(C(=O)c2cn(C(CO)CO)c3ncncc23)c1 [Example 96, N-(2-{[7-(1,3-dihydroxypropan-2-yl)-7H-pyrrolo[2,3-d]pyrimidin-5-yl]carbonyl}pyridin-4-yl)-2-[3-(trifluoromethyl)phenyl]acetamide] | 139 nM |
| CC(C)(CO)n1cc(C(=O)c2ccc(C#N)c(NC(=O)Cn3cc(C(F)(F)F)nn3)c2)c2cnc(N)nc21 [Example 12, N-(5-{[2-amino-7-(1-hydroxy-2-methylpropan-2-yl)-7H-pyrrolo[2,3-d]pyrimidin-5-yl]carbonyl}-2-cyanophenyl)-2-[4-(trifluoromethyl)-1H-1,2,3-triazol-1-yl]acetamide] | 60.7 nM |
| C[C@H](CO)n1cc(C(=O)c2cc(NC(=O)Cc3ccc(C(F)(F)F)cc3)ccn2)c2cncnc21 [Example 22, N-[2-({7-[(2R)-1-hydroxypropan-2-yl]-7H-pyrrolo[2,3-d]pyrimidin-5-yl}carbonyl)pyridin-4-yl]-2-[4-(trifluoromethyl)phenyl]acetamide] | 59.5 nM |
| COc1cc(C(=O)c2cn(C(C)C)c3ncncc23)cc(NC(=O)Cc2ccc(C#N)cc2)n1 [Example 165, 2-(4-cyanophenyl)-N-(6-methoxy-4-{[7-(propan-2-yl)-7H-pyrrolo[2,3-d]pyrimidin-5-yl]carbonyl}pyridin-2-yl)acetamide] | 1040 nM |
| CC(C)n1cc(C(=O)c2ccnc(NC(=O)Cc3ccc(C#N)cc3)c2)c2cnc(N)nc21 [Example 45, N-(4-{[2-amino-7-(propan-2-yl)-7H-pyrrolo[2,3-d]pyrimidin-5-yl]carbonyl}pyridin-2-yl)-2-(4-cyanophenyl)acetamide] | 36.1 nM |
| CC(CO)(CO)n1cc(C(=O)c2cc(NC(=O)Cc3cccc(C(F)(F)F)c3)ccn2)c2cncnc21 [Example 104, N-(2-{[7-(1,3-dihydroxy-2-methylpropan-2-yl)-7H-pyrrolo[2,3-d]pyrimidin-5-yl]carbonyl}pyridin-4-yl)-2-[3-(trifluoromethyl)phenyl]acetamide] | 91.1 nM |
| Cc1ccnn1CC(=O)Nc1cc(C(=O)c2cn(C(C)C)c3ncncc23)ccn1 [Example 160, 2-(5-methyl-1H-pyrazol-1-yl)-N-(4-{[7-(propan-2-yl)-7H-pyrrolo[2,3-d]pyrimidin-5-yl]carbonyl}pyridin-2-yl)acetamide] | 86.3 nM |
| C[C@@H](CO)n1cc(C(=O)c2cc(NC(=O)Cn3ccc(C(F)(F)F)n3)ccn2)c2cncnc21 [Example 14, N-[2-({7-[(2S)-1-hydroxypropan-2-yl]-7H-pyrrolo[2,3-d]pyrimidin-5-yl}carbonyl)pyridin-4-yl]-2-[3-(trifluoromethyl)-1H-pyrazol-1-yl]acetamide] | 131 nM |
| Cc1cc(C(=O)c2cn(C(C)C)c3ncncc23)cc(NC(=O)Cc2ccc(F)cc2)n1 [Example 77, 2-(4-fluorophenyl)-N-(6-methyl-4-{[7-(propan-2-yl)-7H-pyrrolo[2,3-d]pyrimidin-5-yl]carbonyl}pyridin-2-yl)acetamide] | 226 nM |
| Cc1cn(CC(=O)Nc2cc(C(=O)c3cn(CCO)c4ncncc34)ccn2)nn1 [Example 133, N-(4-{[7-(2-hydroxyethyl)-7H-pyrrolo[2,3-d]pyrimidin-5-yl]carbonyl}pyridin-2-yl)-2-(4-methyl-1H-1,2,3-triazol-1-yl)acetamide] | 9380 nM |
| CC(C)n1cc(C(=O)c2ccnc(NC(=O)Cc3ccc(OC(F)(F)F)cc3)c2)c2cncnc21 [Example 120, N-(4-{[7-(propan-2-yl)-7H-pyrrolo[2,3-d]pyrimidin-5-yl]carbonyl}pyridin-2-yl)-2-[4-(trifluoromethoxy)phenyl]acetamide] | 18.6 nM |
| CC(C)n1cc(C(=O)c2ccnc(NC(=O)Cc3cccc(Cl)c3)c2)c2cncnc21 [Example 155, 2-(3-chlorophenyl)-N-(4-{[7-(propan-2-yl)-7H-pyrrolo[2,3-d]pyrimidin-5-yl]carbonyl}pyridin-2-yl)acetamide] | 14.3 nM |
| O=C(Cc1ccc(C(F)(F)F)c(F)c1)Nc1cc(C(=O)c2cn(CCO)c3ncncc23)ccn1 [Example 142, 2-[3-fluoro-4-(trifluoromethyl)phenyl]-N-(4-{[7-(2-hydroxyethyl)-7H-pyrrolo[2,3-d]pyrimidin-5-yl]carbonyl}pyridin-2-yl)acetamide] | 29.5 nM |
| Cc1cc(C(F)(F)F)nn1CC(=O)Nc1ccnc(C(=O)c2cn([C@@H](C)CO)c3ncncc23)c1 [Example 20, N-[2-({7-[(2S)-1-hydroxypropan-2-yl]-7H-pyrrolo[2,3-d]pyrimidin-5-yl}carbonyl)pyridin-4-yl]-2-[5-methyl-3-(trifluoromethyl)-1H-pyrazol-1-yl]acetamide] | 120 nM |
| CC(C)n1cc(C(=O)c2cc(NC(=O)Cc3ccc(F)cn3)ccn2)c2cnc(N)nc21 [Example 89, N-(2-{[2-amino-7-(propan-2-yl)-7H-pyrrolo[2,3-d]pyrimidin-5-yl]carbonyl}pyridin-4-yl)-2-(5-fluoropyridin-2-yl)acetamide] | 76.3 nM |
| CC(C)n1cc(C(=O)c2ccnc(NC(=O)Cc3ccc(Cl)cc3)c2)c2cncnc21 [Example 150, 2-(4-chlorophenyl)-N-(4-{[7-(propan-2-yl)-7H-pyrrolo[2,3-d]pyrimidin-5-yl]carbonyl}pyridin-2-yl)acetamide] | 85.3 nM |
| CC(C)(C)n1cc(C(=O)c2ccnc(NC(=O)Cc3ccc(C#N)cc3)c2)c2cncnc21 [Example 173, N-{4-[(7-tert-butyl-7H-pyrrolo[2,3-d]pyrimidin-5-yl)carbonyl}pyridin-2-yl]-2-(4-cyanophenyl)acetamide] | 25.4 nM |
| Cc1cc(C(F)(F)F)nn1CC(=O)Nc1cc(C(=O)c2cn(C(C)C)c3nc(N)ncc23)ccn1 [Example 46, N-(4-{[2-amino-7-(propan-2-yl)-7H-pyrrolo[2,3-d]pyrimidin-5-yl]carbonyl}pyridin-2-yl)-2-[5-methyl-3-(trifluoromethyl)-1H-pyrazol-1-yl]acetamide] | 4.69 nM |
| CC(C)n1cc(C(=O)c2cc(NC(=O)Cn3ccc(C(F)(F)F)n3)ccn2)c2cnc(N)nc21 [Example 85, N-(2-{[2-amino-7-(propan-2-yl)-7H-pyrrolo[2,3-d]pyrimidin-5-yl]carbonyl}pyridin-4-yl)-2-[3-(trifluoromethyl)-1H-pyrazol-1-yl]acetamide] | 54.1 nM |
| O=C(Cc1cccc(Cl)c1)Nc1cc(C(=O)c2cn(CCO)c3ncncc23)ccn1 [Example 146, 2-(3-chlorophenyl)-N-(4-{[7-(2-hydroxyethyl)-7H-pyrrolo[2,3-d]pyrimidin-5-yl]carbonyl}pyridin-2-yl)acetamide] | 246 nM |
| CC(C)(CO)n1cc(C(=O)c2cc(NC(=O)Cc3ccc(Cl)cc3)ccn2)c2cnc(N)nc21 [Example 48, N-{2-[2-Amino-7-(2-hydroxy-1,1-dimethyl-ethyl)-7H-pyrrolo[2,3-d]pyrimidine-5-carbonyl}-pyridin-4-yl]-2-(4-chloro-phenyl)-acetamide] | 7.29 nM |
| N#Cc1ccc(CC(=O)Nc2cc(C(=O)c3cn([C@H]4CC[C@H](O)CC4)c4ncncc34)ccn2)cc1 [Example 2, 2-(4-cyanophenyl)-N-(4-{[7-(trans-4-hydroxycyclohexyl)-7H-pyrrolo[2,3-d]pyrimidin-5-yl]carbonyl}pyridine-2-yl)acetamide] | 84 nM |
